Assay results: ChEMBL document CHEMBL1201862, “PubChem BioAssay data set” (2004)
Activity calls are given as the source filed them.

Tests used:
[1] = cytotoxicity toward NIH3T3 fibroblasts, dose response, counter-screen, cell-based, ATP luminescence, mouse fibroblasts (AID 2010); type: functional;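 note: cells exposed to compound for about 90 hours before reading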
Vero = experiment: host cell cytotoxicity of antiviral hits, dose response, cytotoxicity control for West Nile virus antiviral project, secondary assay (AID 1650); type: functional; conditions: Chlorocebus sabaeus
[2] = inhibitors of intracellular T. cruzi replication, confirmation, NIH3T3 host cells, beta-gal luminescence (AID 2044); type: functional, cell-based;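 note: intracellular parasites grown in NIH/3T3 mouse fibroblasts as host cells; luminescent beta-galactosidase reporter signal from transgenic T. cruzi replicating inside host cells; inhibitors lower the luminescence signal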
[3] = biological target: C-C chemokine receptor type 6 (Homo sapiens, UniProt P51684); experiment: CCR6 receptor antagonists, dose response, cell-based, luminescent beta-arrestin readout (AID 504728); type: functional
[4] = Luminescence-based cell-based high throughput dose response assay to identify activators of the DAF-12 from the parasite S. stercoralis (ssDAF-12).; type: functional
Beta-galactosidase = Beta-galactosidase (Escherichia coli, UniProt Q8VNN2); experiment: beta-galactosidase enzyme inhibitors and activators, dose response, artefact control for CCR6 antagonist project, biochemical, E. coli enzyme, set 3 (AID 504712); type: functional
[5] = biological target: T1, Oxysterols receptor LXR-beta (Homo sapiens, UniProt P55055); experiment: LXR agonists, Gal4 luciferase reporter, dose response, counter-screen for ssDAF-12 agonist project, cell-based, luminescence, HEK293, S. stercoralis campaign (AID 720737); type: functional; conditions: read-out: IC50 (the source's name)
T1 sequence (P55055 whole entry): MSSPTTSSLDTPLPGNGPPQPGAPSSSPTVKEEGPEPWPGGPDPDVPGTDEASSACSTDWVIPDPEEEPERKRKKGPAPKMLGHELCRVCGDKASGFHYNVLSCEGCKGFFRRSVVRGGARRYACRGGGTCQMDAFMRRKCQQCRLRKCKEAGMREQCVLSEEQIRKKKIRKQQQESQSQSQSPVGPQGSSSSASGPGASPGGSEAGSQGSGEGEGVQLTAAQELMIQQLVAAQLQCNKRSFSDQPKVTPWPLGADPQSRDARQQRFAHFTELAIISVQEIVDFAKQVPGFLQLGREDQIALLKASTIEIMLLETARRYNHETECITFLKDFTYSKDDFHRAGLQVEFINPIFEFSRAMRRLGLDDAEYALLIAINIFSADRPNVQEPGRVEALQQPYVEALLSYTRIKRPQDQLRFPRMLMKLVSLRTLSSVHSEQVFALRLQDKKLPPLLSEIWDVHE

[6] = biological target: Serine/threonine-protein phosphatase (Homo sapiens, UniProt Q9BPW0); experiment: Counterscreen for inhibitors of PP1: fluorescence-based biochemical high throughput dose response assay to identify inhibitors of Protein Phosphatase 5 (PP5). [Related pubchem assays: 2034 (Summary (PP5 inhibitors)), 1987 (PP5 inhibitors in singlate), 2235 (PP1 inhibitors in singlate)]
[7] = biological target: Serine/threonine-protein phosphatase PP1-alpha catalytic subunit (Homo sapiens, UniProt P62136); experiment: PP1 phosphatase inhibitors, dose response, biochemical, fluorescence (AID 2403);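 note: phosphatase turnover of OMFP into fluorescent 3-O-methylfluorescein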
[8] = A Cell Based Secondary Assay To Explore Cytotoxicity of Compounds that Sensitize Mycobacterium Tuberculosis to Beta-Lactam Antibiotics.; type: functional
Leucine aminopeptidase = Leucine aminopeptidase (Plasmodium falciparum 3D7, UniProt Q8IL11); experiment: P. falciparum M17LAP inhibitors, primary screen, biochemical, fluorogenic H-Leu-NHMec substrate, 1536-well (AID 1619); type: functional
[9] = HEp-2 cell cytotoxicity, dose response, cytotoxicity control for RSV inhibitor project, HTS (AID 2410); type: functional; conditions: human respiratory syncytial virus
Estrogen receptor = Estrogen receptor (Homo sapiens, UniProt P03372); experiment: potentiators of ERα–SRC-1 coactivator binding, dose response, biochemical, TR-FRET, ERα LBD (AID 737)
[10] = biological target: T2, Dual specificity protein phosphatase 6 (Rattus norvegicus, UniProt Q64346); experiment: MKP-3 phosphatase inhibitors, primary screen, biochemical, rat enzyme, in vitro (AID 425)
T2 sequence (Q64346 whole entry): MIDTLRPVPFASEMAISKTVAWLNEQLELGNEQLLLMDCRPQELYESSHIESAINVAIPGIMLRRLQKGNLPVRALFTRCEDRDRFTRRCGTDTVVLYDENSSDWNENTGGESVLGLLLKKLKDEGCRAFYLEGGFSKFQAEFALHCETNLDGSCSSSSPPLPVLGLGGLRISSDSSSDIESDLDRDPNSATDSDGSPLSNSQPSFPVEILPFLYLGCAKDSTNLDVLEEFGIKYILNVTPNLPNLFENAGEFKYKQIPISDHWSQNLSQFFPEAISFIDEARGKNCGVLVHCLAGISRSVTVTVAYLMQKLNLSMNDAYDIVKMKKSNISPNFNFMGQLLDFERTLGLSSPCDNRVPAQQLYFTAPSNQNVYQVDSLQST

[11] = biological target: T3, Alkaline phosphatase, tissue-nonspecific isozyme (Homo sapiens, UniProt P05186)
T3 sequence (P05186 whole entry): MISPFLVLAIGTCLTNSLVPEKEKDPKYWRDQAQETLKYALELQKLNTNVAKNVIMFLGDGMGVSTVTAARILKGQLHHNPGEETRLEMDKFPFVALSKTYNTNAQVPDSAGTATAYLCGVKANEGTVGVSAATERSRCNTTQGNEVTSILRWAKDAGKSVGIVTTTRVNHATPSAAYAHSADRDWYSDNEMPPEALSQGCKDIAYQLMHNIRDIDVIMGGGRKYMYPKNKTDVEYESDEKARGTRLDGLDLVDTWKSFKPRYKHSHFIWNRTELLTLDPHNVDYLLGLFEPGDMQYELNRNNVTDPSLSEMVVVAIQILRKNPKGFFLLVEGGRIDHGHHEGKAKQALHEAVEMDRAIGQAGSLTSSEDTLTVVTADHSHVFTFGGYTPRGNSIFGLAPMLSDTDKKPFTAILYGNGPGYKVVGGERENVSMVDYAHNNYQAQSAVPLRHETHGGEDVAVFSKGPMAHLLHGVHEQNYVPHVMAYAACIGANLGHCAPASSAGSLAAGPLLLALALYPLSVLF

[12] = THP-1 cell cytotoxicity, dose response, cytotoxicity control for Vif-APOBEC3G degradation inhibitor project, THP-1 cells (AID 1117359); type: functional; conditions: Human immunodeficiency virus 1, THP-1
X-box-binding protein 1 = X-box-binding protein 1 (Homo sapiens, UniProt P17861); type: functional, Cricetulus griseus;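 note: confirmatory dose-response counter-screen serving a CHOP assay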
X-box-binding protein 1, sequence (P17861 whole entry): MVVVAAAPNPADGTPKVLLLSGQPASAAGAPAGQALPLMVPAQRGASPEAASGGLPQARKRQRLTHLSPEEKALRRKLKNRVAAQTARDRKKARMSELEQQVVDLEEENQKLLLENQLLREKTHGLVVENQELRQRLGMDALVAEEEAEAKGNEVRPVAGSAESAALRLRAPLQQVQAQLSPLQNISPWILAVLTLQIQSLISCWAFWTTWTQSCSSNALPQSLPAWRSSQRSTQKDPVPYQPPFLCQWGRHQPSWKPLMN

Leucine aminopeptidase, sequence (Q8IL11 whole entry): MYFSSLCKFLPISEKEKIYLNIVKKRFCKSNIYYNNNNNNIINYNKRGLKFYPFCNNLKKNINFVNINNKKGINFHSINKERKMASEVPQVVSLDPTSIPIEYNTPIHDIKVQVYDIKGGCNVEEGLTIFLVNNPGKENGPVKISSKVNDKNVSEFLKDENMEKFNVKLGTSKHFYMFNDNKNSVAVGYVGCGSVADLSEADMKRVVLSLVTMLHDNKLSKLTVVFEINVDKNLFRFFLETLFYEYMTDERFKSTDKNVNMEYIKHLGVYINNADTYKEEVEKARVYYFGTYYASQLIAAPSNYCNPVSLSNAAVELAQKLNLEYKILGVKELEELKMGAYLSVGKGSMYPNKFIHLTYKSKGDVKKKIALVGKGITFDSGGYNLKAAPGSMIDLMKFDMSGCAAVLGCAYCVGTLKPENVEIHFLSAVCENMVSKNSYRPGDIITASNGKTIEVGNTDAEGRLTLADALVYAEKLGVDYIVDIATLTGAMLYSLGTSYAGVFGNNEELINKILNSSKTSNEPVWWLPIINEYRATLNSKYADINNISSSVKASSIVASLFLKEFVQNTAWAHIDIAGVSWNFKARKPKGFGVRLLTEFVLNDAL
Estrogen receptor, sequence (P03372 whole entry, the tested form may be a part): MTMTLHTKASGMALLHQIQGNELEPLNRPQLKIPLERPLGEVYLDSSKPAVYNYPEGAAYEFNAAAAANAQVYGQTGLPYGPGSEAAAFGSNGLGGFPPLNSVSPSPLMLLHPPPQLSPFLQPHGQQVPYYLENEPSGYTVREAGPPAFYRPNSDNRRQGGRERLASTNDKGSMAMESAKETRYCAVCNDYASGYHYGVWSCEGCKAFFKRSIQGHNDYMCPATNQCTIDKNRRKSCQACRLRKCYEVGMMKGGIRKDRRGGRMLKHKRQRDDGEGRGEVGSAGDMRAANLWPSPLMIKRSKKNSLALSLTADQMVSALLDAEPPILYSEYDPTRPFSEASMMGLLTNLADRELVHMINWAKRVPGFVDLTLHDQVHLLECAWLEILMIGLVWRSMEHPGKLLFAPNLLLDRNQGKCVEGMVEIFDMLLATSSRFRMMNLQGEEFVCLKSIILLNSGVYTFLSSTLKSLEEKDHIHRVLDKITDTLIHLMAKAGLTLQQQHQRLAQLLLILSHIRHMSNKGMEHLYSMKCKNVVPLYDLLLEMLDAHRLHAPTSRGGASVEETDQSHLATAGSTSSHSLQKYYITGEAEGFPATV
Serine/threonine-protein phosphatase, sequence (Q9BPW0 whole entry): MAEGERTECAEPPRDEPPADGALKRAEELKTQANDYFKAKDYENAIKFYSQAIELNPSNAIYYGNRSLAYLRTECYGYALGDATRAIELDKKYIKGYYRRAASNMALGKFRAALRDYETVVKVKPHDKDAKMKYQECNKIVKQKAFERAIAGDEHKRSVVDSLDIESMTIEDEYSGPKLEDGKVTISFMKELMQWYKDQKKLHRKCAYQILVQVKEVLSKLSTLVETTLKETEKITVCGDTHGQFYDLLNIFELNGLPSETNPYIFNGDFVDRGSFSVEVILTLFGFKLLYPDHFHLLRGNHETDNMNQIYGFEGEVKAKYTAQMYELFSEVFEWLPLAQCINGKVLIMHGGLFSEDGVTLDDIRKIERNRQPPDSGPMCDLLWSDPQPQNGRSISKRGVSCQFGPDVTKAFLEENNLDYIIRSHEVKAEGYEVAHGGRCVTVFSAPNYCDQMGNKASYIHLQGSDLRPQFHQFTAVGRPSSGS
Beta-galactosidase, sequence (Q8VNN2 whole entry, the tested form may be a part): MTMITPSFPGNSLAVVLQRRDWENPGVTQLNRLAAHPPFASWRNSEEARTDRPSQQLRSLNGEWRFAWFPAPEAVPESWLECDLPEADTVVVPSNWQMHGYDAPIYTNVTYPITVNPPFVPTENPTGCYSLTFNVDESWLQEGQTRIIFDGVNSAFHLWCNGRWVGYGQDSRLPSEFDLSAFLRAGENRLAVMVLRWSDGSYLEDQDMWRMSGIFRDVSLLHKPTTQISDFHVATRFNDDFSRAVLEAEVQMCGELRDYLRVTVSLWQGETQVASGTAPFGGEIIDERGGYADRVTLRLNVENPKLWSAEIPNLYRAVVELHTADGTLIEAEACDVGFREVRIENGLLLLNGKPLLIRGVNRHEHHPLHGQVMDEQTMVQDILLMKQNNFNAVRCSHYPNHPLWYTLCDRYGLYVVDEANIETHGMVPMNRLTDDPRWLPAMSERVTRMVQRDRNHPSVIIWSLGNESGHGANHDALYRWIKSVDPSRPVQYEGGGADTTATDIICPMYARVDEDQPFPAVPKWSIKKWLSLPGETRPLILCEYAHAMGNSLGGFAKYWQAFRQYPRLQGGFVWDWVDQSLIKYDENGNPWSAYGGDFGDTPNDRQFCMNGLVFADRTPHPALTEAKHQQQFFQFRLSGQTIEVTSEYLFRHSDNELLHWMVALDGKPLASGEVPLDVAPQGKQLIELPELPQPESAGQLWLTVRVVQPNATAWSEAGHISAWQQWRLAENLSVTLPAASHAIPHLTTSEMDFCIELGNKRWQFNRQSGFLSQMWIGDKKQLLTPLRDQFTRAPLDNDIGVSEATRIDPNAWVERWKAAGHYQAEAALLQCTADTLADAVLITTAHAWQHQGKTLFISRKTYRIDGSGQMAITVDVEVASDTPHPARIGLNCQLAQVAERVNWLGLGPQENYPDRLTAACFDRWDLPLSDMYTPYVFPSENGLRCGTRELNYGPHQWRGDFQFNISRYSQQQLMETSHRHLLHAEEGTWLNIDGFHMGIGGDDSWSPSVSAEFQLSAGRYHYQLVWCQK
Serine/threonine-protein phosphatase PP1-alpha catalytic subunit, sequence (P62136 whole entry): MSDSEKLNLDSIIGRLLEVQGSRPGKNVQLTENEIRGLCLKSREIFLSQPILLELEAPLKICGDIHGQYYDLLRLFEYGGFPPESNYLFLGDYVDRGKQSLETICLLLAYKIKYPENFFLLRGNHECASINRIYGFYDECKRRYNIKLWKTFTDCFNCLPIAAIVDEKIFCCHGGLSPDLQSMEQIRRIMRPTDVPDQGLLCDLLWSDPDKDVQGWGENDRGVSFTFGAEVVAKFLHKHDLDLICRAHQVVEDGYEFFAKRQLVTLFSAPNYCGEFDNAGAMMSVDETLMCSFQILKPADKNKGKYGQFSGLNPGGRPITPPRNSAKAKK
C-C chemokine receptor type 6, sequence (P51684 whole entry): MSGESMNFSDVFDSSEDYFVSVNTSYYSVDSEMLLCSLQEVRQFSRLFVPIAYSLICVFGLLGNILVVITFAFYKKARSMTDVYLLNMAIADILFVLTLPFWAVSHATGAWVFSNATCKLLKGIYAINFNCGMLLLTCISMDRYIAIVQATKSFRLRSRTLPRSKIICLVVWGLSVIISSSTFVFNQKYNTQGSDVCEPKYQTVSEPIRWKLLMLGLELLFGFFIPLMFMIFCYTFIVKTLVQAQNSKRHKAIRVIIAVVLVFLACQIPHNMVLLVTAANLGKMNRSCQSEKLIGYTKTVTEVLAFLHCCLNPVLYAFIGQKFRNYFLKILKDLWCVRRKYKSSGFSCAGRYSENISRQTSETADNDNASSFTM

O=[N+]([O-])c1ccc(NC2CCN(Cc3ccccc3)CC2)c2ccncc12
EC50 [1]: > 60 µM (not active) | CC50 (Vero): > 100 µM (active) | EC50 [2]: 0.811 µM (active)

Cc1c(C(=O)Nc2nc3ccccc3[nH]2)oc2ccccc12
IC50 [3]: 0.552 µM (active) | IC50 [4]: > 67.5 µM (inactive) | IC50 (Beta-galactosidase): > 66.6 µM (inactive) | EC50 [5]: > 67.5 µM (inactive)

COc1ccc(CN2C(=O)Cc3c2nc(N)c2c(N)nc(N4CCCCC4)c(C#N)c32)cc1
IC50 [6]: > 67 µM (not active) | IC50 [7]: 11.1 µM (not active)

Cc1cc(NC(=O)CSc2nc(C(C)C)nc3sc4c(c23)CCCC4)no1
CC50 [8]: 38 µM (active)

CCc1ccccc1NC(=O)CSc1nnc[nH]1
IC50 (Leucine aminopeptidase): 34.4 µM (active)

Cc1nc2ccccc2nc(C)c1=NOCc1cccc(F)c1
IC50 (cells): 35.9 µM (active) | CC50 [9]: 41.4 µM (active)

COc1cccc(-n2nnnc2SCC(=O)Nc2ccc(C(C)=O)cc2)c1
EC50 (Estrogen receptor): 17.3 µM (active)

CCOc1ccc2nc(Nc3nc4c(c(=O)[nH]3)CCC4)nc(C)c2c1
IC50 [10]: 36.8 µM (active)

CCC(C)N=C(S)NNC(=O)c1ccc(C(C)(C)C)cc1 (stereo not given)
EC50 [11]: 79.2 µM (not active) | CC50 [12]: > 40 µM (active)

CCCOc1ccc(N2C(=O)CC(SC(=NCC)Nc3cccc(F)c3)C2=O)cc1 (stereo not given)
Absolute IC50 (XBP1) (X-box-binding protein 1): 10 µM

N#Cc1ccsc1NC(=O)CSc1nnc[nH]1
IC50 (Leucine aminopeptidase): 10.7 µM (active)

CCSc1nc2c(cnn2-c2ccc(C)cc2)c(=O)[nH]1
EC50 (Estrogen receptor): 14.4 µM (active)
